Laboratory results from patent US4795748A, “Antibacterial 7-oxo-4-thia-1-azabicyclo[3,2,0]hept-2-ene derivatives” (Hoechst UK Limited, priority 1984, dated 1989).
Values after ≈ are worked out from the molar mass of the structure shown.

What was measured:
Format in all cases: cell-based
Str. pyogenes 77A = assay: agar dilution test, MIC, Str. pyogenes 77A; settings: Streptococcus pyogenes, Mueller Hinton agar, 16 to 18 hours, 37° C., read-out: Minimum Inhibitory Concentration
Protocol: (§1) The antimicrobial activity was determined by measuring the Minimum Inhibitory Concentration (MIC). The MIC of the compounds was determined by a standard test, the "agar dilution test" according to Lorian (Antibioticsin Laboratory Medicine, Williams and Wilkins, Baltimore/London 1980) as follows:
(§2) A two-fold decreasing concentration series of each compound was prepared in Petri dishes containing 15 ml of Mueller Hinton agar (Difco). One Petri dish containing only the Mueller Hinton agar served as control for bacterial growth. Each Petri dish was inoculated with a multi-point inoculator (Denley), which transfered 0.6 μl of a 1:100 diluted 18 hours culture of the appropriate test bacterium. After 16 to 18 hours of incubation at 37° C., the Petri dishes were examined for growth of bacteria. The lowest concentration of the compound which causes complete inhibition of growth is taken as the MIC.

Str. pyogenes 308 A = assay: agar dilution test, MIC, Str. pyogenes 308 A; settings: Streptococcus pyogenes, Mueller Hinton agar, 16 to 18 hours, 37° C., read-out: Minimum Inhibitory Concentration
Protocol: as §1, §2

Str. faecium D = assay: agar dilution test, MIC, Str. faecium D; settings: Enterococcus faecium, Mueller Hinton agar, 16 to 18 hours, 37° C., read-out: Minimum Inhibitory Concentration
Protocol: as §1, §2

Staph. aureus SG 511 = assay: agar dilution test, MIC, Staph. aureus SG 511; settings: Staphylococcus aureus, SG511, Mueller Hinton agar, 16 to 18 hours, 37° C., read-out: Minimum Inhibitory Concentration
Protocol: as §1, §2

Staph. aureus 285 = assay: agar dilution test, MIC, Staph. aureus 285; settings: Staphylococcus aureus, Mueller Hinton agar, 16 to 18 hours, 37° C., read-out: Minimum Inhibitory Concentration
Protocol: as §1, §2

Staph. aureus 503 = assay: agar dilution test, MIC, Staph. aureus 503; settings: Staphylococcus aureus, Mueller Hinton agar, 16 to 18 hours, 37° C., read-out: Minimum Inhibitory Concentration
Protocol: as §1, §2

Bac. subtilis ATCC 6633 = assay: agar dilution test, MIC, Bac. subtilis ATCC 6633; settings: Bacillus subtilis, ATCC6633, Mueller Hinton agar, 16 to 18 hours, 37° C., read-out: Minimum Inhibitory Concentration
Protocol: as §1, §2

E. coli 055 = assay: agar dilution test, MIC, E. coli 055; settings: Escherichia coli, Mueller Hinton agar, 16 to 18 hours, 37° C., read-out: Minimum Inhibitory Concentration
Protocol: as §1, §2

E. coli DC2 = assay: agar dilution test, MIC, E. coli DC2; settings: Escherichia coli, Mueller Hinton agar, 16 to 18 hours, 37° C., read-out: Minimum Inhibitory Concentration
Protocol: as §1, §2

E. coli TEM = assay: agar dilution test, MIC, E. coli TEM; settings: Escherichia coli, 18 h, read-out: Minimum Inhibitory Concentration
Protocol: as §1, §2

E. coli 1507 E = assay: agar dilution test, MIC, E. coli 1507 E; settings: Escherichia coli, Mueller Hinton agar, 16 to 18 hours, 37° C., read-out: Minimum Inhibitory Concentration
Protocol: as §1, §2

Kl. aerog. 1082 E = assay: agar dilution test, MIC, Kl. aerog. 1082 E; settings: Mueller Hinton agar, 16 to 18 hours, 37° C., read-out: Minimum Inhibitory Concentration
Protocol: as §1, §2

Kl. aerog. 1522 E = assay: agar dilution test, MIC, Kl. aerog. 1522 E; settings: Mueller Hinton agar, 16 to 18 hours, 37° C., read-out: Minimum Inhibitory Concentration
Protocol: as §1, §2

Ent. cloacae 1321 E = assay: agar dilution test, MIC, Ent. cloacae 1321 E; settings: Enterobacter cloacae, Mueller Hinton agar, 16 to 18 hours, 37° C., read-out: Minimum Inhibitory Concentration
Protocol: as §1, §2

Salm. typhimurium MZ II = assay: agar dilution test, MIC, Salm. typhimurium MZ II; settings: Salmonella enterica, Mueller Hinton agar, 16 to 18 hours, 37° C., read-out: Minimum Inhibitory Concentration
Protocol: as §1, §2

E. coli KN 126 = assay: agar dilution test, MIC, E. coli KN 126; settings: Escherichia coli, KN126, Mueller Hinton agar, 16 to 18 hours, 37° C., read-out: Minimum Inhibitory Concentration
Protocol: as §1, §2

[1] = test system: a variety of microorganisms, particularly β-lactamase producing organisms; assay: antibacterial activity compared with the corresponding unsubstituted 3-phenoxy compound; settings: against a variety of microorganisms
Protocol: as §1, §2

## C[C@@H](O)[C@H]1C(=O)N2C(C(=O)O)=C(Oc3ccc(C(N)=O)cc3)S[C@H]12 [Ra = 4-CONH2, 5R-3-(4-carbamoylphenoxy)-6S-(1R-hydroxyethyl)-7-oxo-4-thia-1-azabicyclo[3,2,0]hept-2-ene-2-carboxylate]
Str. pyogenes 77A
  MIC: 0.05 µg/mL (≈ 0.143 µM)
Str. pyogenes 308 A
  MIC: 0.025 µg/mL (≈ 0.0714 µM)
Str. faecium D
  MIC: 6.25 µg/mL (≈ 17.8 µM)
Staph. aureus SG 511
  MIC: 0.05 µg/mL (≈ 0.143 µM)
Staph. aureus 285
  MIC: 0.1 µg/mL (≈ 0.285 µM)
Staph. aureus 503
  MIC: 0.1 µg/mL (≈ 0.285 µM)
Bac. subtilis ATCC 6633
  MIC: 0.05 µg/mL (≈ 0.143 µM)
E. coli 055
  MIC: 0.19 µg/mL (≈ 0.542 µM)
E. coli DC2
  MIC: 0.78 µg/mL (≈ 2.23 µM)
E. coli TEM
  MIC: 0.39 µg/mL (≈ 1.11 µM)
E. coli 1507 E
  MIC: 0.39 µg/mL (≈ 1.11 µM)
Kl. aerog. 1082 E
  MIC: 0.39 µg/mL (≈ 1.11 µM)
Kl. aerog. 1522 E
  MIC: 0.78 µg/mL (≈ 2.23 µM)
Ent. cloacae 1321 E
  MIC: 0.78 µg/mL (≈ 2.23 µM)
Salm. typhimurium MZ II
  MIC: 0.78 µg/mL (≈ 2.23 µM)
E. coli KN 126
  MIC: 0.39 µg/mL (≈ 1.11 µM)
[1]
  antibacterial activity versus the corresponding unsubstituted 3-phenoxy compound: greater antibacterial activity
